Reference: BindingDB's records for doi:10.1016/j.bmcl.2007.12.040 (Merck Research Laboratories, 2008)

What was measured:
Assay in all cases: Akt Inhibition Assay
Conditions in all cases: pH 7.5; 22 °C
[1] = target: RAC-alpha serine/threonine-protein kinase (Homo sapiens, UniProt P31749)
Description: (§1) Purified recombinant human Akt kinase was monitored for kinase activity in the presence or absence of inhibitors in a 96-well format. Detection was done by homogeneous time-resolved fluorescence (HTRF) using a europium-labeled Phospho (S21)-GSK3a antibody, and streptavidin-linked XL665 fluorophore which binds to the biotin moiety on the substrate peptide.

[2] = target: RAC-beta serine/threonine-protein kinase (Homo sapiens, UniProt P31751)
Sequence of RAC-beta serine/threonine-protein kinase (P31751 whole entry): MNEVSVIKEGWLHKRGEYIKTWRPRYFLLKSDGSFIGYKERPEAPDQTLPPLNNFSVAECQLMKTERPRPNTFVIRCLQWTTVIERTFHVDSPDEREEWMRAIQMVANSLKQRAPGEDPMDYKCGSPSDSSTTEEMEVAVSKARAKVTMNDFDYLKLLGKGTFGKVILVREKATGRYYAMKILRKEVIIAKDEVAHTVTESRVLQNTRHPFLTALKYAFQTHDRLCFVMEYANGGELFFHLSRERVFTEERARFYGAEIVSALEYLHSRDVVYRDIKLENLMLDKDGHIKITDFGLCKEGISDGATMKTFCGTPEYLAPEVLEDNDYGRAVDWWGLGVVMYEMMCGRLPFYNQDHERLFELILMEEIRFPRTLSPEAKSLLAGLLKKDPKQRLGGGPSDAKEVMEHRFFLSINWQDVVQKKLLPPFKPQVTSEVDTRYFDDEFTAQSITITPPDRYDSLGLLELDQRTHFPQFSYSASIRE
Description: as §1

[3] = target: RAC-gamma serine/threonine-protein kinase (Homo sapiens, UniProt Q9Y243)
Sequence of RAC-gamma serine/threonine-protein kinase (Q9Y243 whole entry): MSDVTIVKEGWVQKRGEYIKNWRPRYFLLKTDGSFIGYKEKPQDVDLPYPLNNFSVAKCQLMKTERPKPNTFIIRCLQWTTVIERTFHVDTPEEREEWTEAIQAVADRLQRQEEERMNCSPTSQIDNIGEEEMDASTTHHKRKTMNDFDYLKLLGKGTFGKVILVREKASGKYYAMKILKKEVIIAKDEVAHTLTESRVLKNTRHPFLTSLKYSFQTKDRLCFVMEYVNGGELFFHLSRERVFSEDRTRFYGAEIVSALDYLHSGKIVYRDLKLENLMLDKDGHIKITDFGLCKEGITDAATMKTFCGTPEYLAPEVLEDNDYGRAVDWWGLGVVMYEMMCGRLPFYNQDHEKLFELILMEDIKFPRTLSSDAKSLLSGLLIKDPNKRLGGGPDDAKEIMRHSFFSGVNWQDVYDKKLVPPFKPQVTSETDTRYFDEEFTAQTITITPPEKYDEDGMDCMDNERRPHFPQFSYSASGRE
Description: as §1

Sequence of RAC-alpha serine/threonine-protein kinase (P31749 whole entry): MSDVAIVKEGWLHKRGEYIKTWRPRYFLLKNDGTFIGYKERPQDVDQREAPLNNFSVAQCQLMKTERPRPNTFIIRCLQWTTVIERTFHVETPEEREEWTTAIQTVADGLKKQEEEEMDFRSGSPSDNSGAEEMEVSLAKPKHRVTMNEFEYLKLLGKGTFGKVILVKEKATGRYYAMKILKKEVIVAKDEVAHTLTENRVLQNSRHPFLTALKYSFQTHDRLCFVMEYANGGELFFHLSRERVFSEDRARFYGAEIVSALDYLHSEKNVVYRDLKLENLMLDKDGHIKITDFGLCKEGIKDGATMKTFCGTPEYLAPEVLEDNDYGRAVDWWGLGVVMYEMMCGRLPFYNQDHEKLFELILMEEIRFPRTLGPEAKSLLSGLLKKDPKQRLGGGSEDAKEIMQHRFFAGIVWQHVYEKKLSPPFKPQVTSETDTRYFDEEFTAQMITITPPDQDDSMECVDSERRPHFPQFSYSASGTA

| Compound | IC50 [1] [nM] | IC50 [2] [nM] | IC50 [3] [nM] |
| --- | --- | --- | --- |
| Nc1ncnc2c1cnn2C1CCN(Cc2ccc(-c3ncc(-c4nccs4)cc3-c3ccccc3)cc2)CC1 [1-[1-({4-[3-phenyl-5-(1,3-thiazol-2-yl)pyridin-2-yl]phenyl}methyl)piperidin-4-yl]-1H-pyrazolo[3,4-d]pyrimidin-4-amine] | 264 | 64 | – |
| Nc1ncnc2c1cnn2C1CCN(Cc2ccc(-c3ncc(-c4nnc[nH]4)cc3-c3ccccc3)cc2)CC1 [1-[1-({4-[3-phenyl-5-(1H-1,2,4-triazol-3-yl)pyridin-2-yl]phenyl}methyl)piperidin-4-yl]-1H-pyrazolo[3,4-d]pyrimidin-4-amine] | 182 | 101 | – |
| Nc1ncnc2c1cnn2C1CCN(Cc2ccc(-c3ncc(-c4ccccn4)cc3-c3ccccc3)cc2)CC1 [1-[1-({4-[3-phenyl-5-(pyridin-2-yl)pyridin-2-yl]phenyl}methyl)piperidin-4-yl]-1H-pyrazolo[3,4-d]pyrimidin-4-amine] | 1630 | 370 | – |
| Nc1ncnc2c1cnn2C1CCN(Cc2ccc(-c3ncc(-c4ncccn4)cc3-c3ccccc3)cc2)CC1 [1-[1-({4-[3-phenyl-5-(pyrimidin-2-yl)pyridin-2-yl]phenyl}methyl)piperidin-4-yl]-1H-pyrazolo[3,4-d]pyrimidin-4-amine] | 306 | 62 | – |
| Nc1ncnc2c1cnn2C1CCN(Cc2ccc(-c3ncc(-c4ncon4)cc3-c3ccccc3)cc2)CC1 [1-[1-({4-[5-(1,2,4-oxadiazol-3-yl)-3-phenylpyridin-2-yl]phenyl}methyl)piperidin-4-yl]-1H-pyrazolo[3,4-d]pyrimidin-4-amine] | 180 | 121 | – |
| Nc1nnc(-c2cnc(-c3ccc(CN4CCC(n5c(=O)[nH]c6ncccc65)CC4)cc3)c(-c3ccccc3)c2)s1 [1-[1-({4-[5-(5-amino-1,3,4-thiadiazol-2-yl)-3-phenylpyridin-2-yl]phenyl}methyl)piperidin-4-yl]-1H,2H,3H-imidazo[4,5-b]pyridin-2-one] | 434 | 73 | – |
| Nc1nnc(-c2cnc(-c3ccc(CNCCC(=O)c4ccccc4N)cc3)c(-c3ccccc3)c2)s1 [3-[({4-[5-(5-amino-1,3,4-thiadiazol-2-yl)-3-phenylpyridin-2-yl]phenyl}methyl)amino]-1-(2-aminophenyl)propan-1-one] | 114 | 30 | – |
| Nc1nnc(-c2cnc(-c3ccc(CN4CCC(n5ncc6c(N)ncnc65)CC4)cc3)c(-c3ccccc3)c2)s1 [5-(6-{4-[(4-{4-amino-1H-pyrazolo[3,4-d]pyrimidin-1-yl}piperidin-1-yl)methyl]phenyl}-5-phenylpyridin-3-yl)-1,3,4-thiadiazol-2-amine] | 126 | 22 | – |
| Nc1nnc(-c2cnc(-c3ccc(CN4CCC(n5cc(-c6cnccn6)cn5)CC4)cc3)c(-c3ccccc3)c2)s1 [5-{5-phenyl-6-[4-({4-[4-(pyrazin-2-yl)-1H-pyrazol-1-yl]piperidin-1-yl}methyl)phenyl]pyridin-3-yl}-1,3,4-thiadiazol-2-amine] | 172 | 51 | – |
| Nc1nnc(-c2cnc(-c3ccc(CN4CCC(n5cc(-c6ccccn6)cn5)CC4)cc3)c(-c3ccccc3)c2)s1 [5-{5-phenyl-6-[4-({4-[4-(pyridin-2-yl)-1H-pyrazol-1-yl]piperidin-1-yl}methyl)phenyl]pyridin-3-yl}-1,3,4-thiadiazol-2-amine] | 214 | 90 | – |
| Nc1nnc(-c2cnc(-c3ccc(CN4CCC(c5n[nH]c(-c6ccccn6)n5)CC4)cc3)c(-c3ccccc3)c2)s1 [5-{5-phenyl-6-[4-({4-[5-(pyridin-2-yl)-1H-1,2,4-triazol-3-yl]piperidin-1-yl}methyl)phenyl]pyridin-3-yl}-1,3,4-thiadiazol-2-amine] | 85 | 22 | – |
| Nc1nnc(-c2cnc(-c3ccc(CN4CCC(c5cc(-c6ccccn6)[nH]n5)CC4)cc3)c(-c3ccccc3)c2)s1 [5-{5-phenyl-6-[4-({4-[5-(pyridin-2-yl)-1H-pyrazol-3-yl]piperidin-1-yl}methyl)phenyl]pyridin-3-yl}-1,3,4-thiadiazol-2-amine] | 95 | 28 | – |
| Nc1nnc(-c2cnc(-c3ccc(CN4CCC(c5cc(-c6ccncc6)[nH]n5)CC4)cc3)c(-c3ccccc3)c2)s1 [5-{5-phenyl-6-[4-({4-[5-(pyridin-4-yl)-1H-pyrazol-3-yl]piperidin-1-yl}methyl)phenyl]pyridin-3-yl}-1,3,4-thiadiazol-2-amine] | 123 | 38 | – |
| Nc1ncnc2c1ncn2C1CCN(Cc2ccc(-c3ncc(-c4nnn[nH]4)cc3-c3ccccc3)cc2)CC1 [9-[1-({4-[3-phenyl-5-(1H-1,2,3,4-tetrazol-5-yl)pyridin-2-yl]phenyl}methyl)piperidin-4-yl]-9H-purin-6-amine] | 210 | 105 | > 50000 |
